Reference: US10047086B2, “Imidazopyridines and imidazopyrazines as LSD1 inhibitors” (Incyte Corporation, priority 2014, dated 2018)

Molecular target: LSD-1 enzyme (Homo sapiens (Human), UniProt O60341)
Assay: LANCE LSD1/KDM1A demethylase assay (LSD1 histone demethylase biochemical assay)
Details: 1 nM LSD-1 enzyme, 1 hour preincubation at 25° C., 0.4 μM Biotin-labeled Histone H3 peptide substrate
Procedure: LSD1 Histone Demethylase Biochemical Assay
LANCE LSD1/KDM1A demethylase assay-10 μL of 1 nM LSD-1 enzyme (ENZO BML-SE544-0050) in the assay buffer (50 mM Tris, pH 7.5, 0.01% Tween-20, 25 mM NaCl, 5 mM DTT) were preincubated for 1 hour at 25° C. with 0.8 μL compound/DMSO dotted in black 384 well polystyrene plates. […] Reactions were stopped by addition of 10 μL 1× LANCE Detection Buffer (PerkinElmer CR97-100) supplemented with 1.5 nM Eu-anti-unmodified H3K4 Antibody (PerkinElmer TRF0404), and 225 nM LANCE Ultra Streptavidin (PerkinElmer TRF102) along with 0.9 mM Tranylcypromine-HCl (Millipore 616431). After stopping the reactions plates were incubated for 30 minutes and read on a PHERAstar FS plate reader (BMG Labtech).

SMILES | IC50
CN(C)C1CCN(c2nc(-c3ccc(C#N)cc3)c(-c3ccc4c(c3)nc(C(F)F)n4C)n3cncc23)CC1 [Example 143, 4-{5-[2-(difluoromethyl)-1-methyl-1H-benzimidazol-5-yl]-8-[4-(dimethylamino)piperidin-1-yl]imidazo[1,5-a]pyrazin-6-yl}benzonitrile] | ≤ 50 nM
CN(C)C1CCN(c2nc(-c3ccc(C#N)cc3)c(-c3cc(F)c4c(c3)n(C)c(=O)n4C)n3cncc23)CC1 [Example 138, 4-(8-(4-(dimethylamino)piperidin-1-yl)-5-(7-fluoro-1,3-dimethyl-2-oxo-2,3-dihydro-1H-benzo[d]imidazol-5-yl)imidazo[1,5-a]pyrazin-6-yl)benzonitrile] | ≤ 50 nM
CN(C)C1CCN(c2nc(-c3ccc(C#N)cc3)c(-c3ccc(N4CCCC4=O)nc3)n3cncc23)CC1 [Example 54, 4-{8-[4-(dimethylamino)piperidin-1-yl]-5-[6-(2-oxopyrrolidin-1-yl)pyridin-3-yl]imidazo[1,5-a]pyrazin-6-yl}benzonitrile] | ≤ 50 nM
Cc1nc2cc(-c3c(-c4ccc(C#N)cc4)cc(OC[C@@H]4CCCN(C)C4)c4cncn34)ccc2n1C [Example 153, 4-(5-(1,2-dimethyl-1H-benzimidazol-5-yl)-8-{[(3R)-1-methylpiperidin-3-yl]methoxy}imidazo[1,5-a]pyridin-6-yl)benzonitrile] | ≤ 50 nM
Cc1ccc(-c2c(-c3ccc(C#N)cc3)cc(OC[C@@H]3CCN(C)C3)c3cncn23)cc1 [Example 20, 4-(5-(4-methylphenyl)-8-{[(3R)-1-methylpyrrolidin-3-yl]methoxy}imidazo[1,5-a]pyridin-6-yl)benzonitrile] | ≤ 50 nM
COc1ccc(-c2c(-c3ccc(C#N)cc3)cc(OC[C@@H]3CCCN(C)C3)c3cncn23)cn1 [Example 72, 4-(5-(6-methoxypyridin-3-yl)-8-{[(3R)-1-methylpiperidin-3-yl]methoxy}imidazo[1,5-a]pyridin-6-yl)benzonitrile] | ≤ 50 nM
CN1C(=O)Cc2cc(-c3c(-c4ccc(C#N)cc4)cc(OC[C@@H]4CCNC4)c4cncn34)ccc21 [Example 12, 4-{5-(1-methyl-2-oxo-2,3-dihydro-1H-indol-5-yl)-8-[(3R)-pyrrolidin-3-ylmethoxy]imidazo-[1,5-a]pyridin-6-yl}benzonitrile] | ≤ 50 nM
CN1CCC[C@@H](COc2cc(-c3ccc(C#N)cc3)c(-c3cnc4c(c3)oc(=O)n4C)n3cncc23)C1 [Example 57, (R)-4-(5-(3-methyl-2-oxo-2,3-dihydrooxazolo[4,5-b]pyridin-6-yl)-8-((1-methylpiperidin-3-yl)methoxy)imidazo[1,5-a]pyridin-6-yl)benzonitrile] | ≤ 50 nM
CCN1CCC[C@@H](COc2cc(-c3ccc(C#N)cc3)c(-c3cnc(C)c(C)c3)n3cncc23)C1 [Example 131, 4-(5-(5,6-dimethylpyridin-3-yl)-8-{[(3R)-1-ethylpiperidin-3-yl]methoxy}imidazo[1,5-a]pyridin-6-yl)benzonitrile] | ≤ 50 nM
CN1CCC[C@@H](COc2nc(-c3ccc(C#N)cc3)c(-c3ccc4c(c3)CC(O)C4)n3cncc23)C1 (stereo partly drawn) [Example 101, 4-(5-(2-hydroxy-2,3-dihydro-1H-inden-5-yl)-8-{[(3R)-1-methylpiperidin-3-yl]methoxy}imidazo[1,5-a]pyrazin-6-yl)benzonitrile] | ≤ 50 nM
Cc1nc2cc(-c3c(-c4ccc(C#N)cc4)nc(OC[C@@H]4CCCN(C)C4)c4cncn34)ccc2s1 [Example 35, 4-(5-(2-methyl-1,3-benzothiazol-5-yl)-8-{[(3R)-1-methylpiperidin-3-yl]methoxy}imidazo[1,5-a]pyrazin-6-yl)benzonitrile] | ≤ 50 nM
Cc1cc(-c2c(-c3ccc(C#N)cc3)cc(OC[C@@H]3CCCN(C)C3)c3cncn23)cc(F)c1C(C)O (stereo partly drawn) [Example 126, 4-(5-[3-fluoro-4-(1-hydroxyethyl)-5-methylphenyl]-8-{[(3R)-1-methylpiperidin-3-yl]methoxy}imidazo[1,5-a]pyridin-6-yl)benzonitrile] | ≤ 50 nM
Cc1ccc(-c2c(-c3ccc(C#N)c(F)c3)cc(OC[C@@H]3CCNC3)c3cncn23)cc1 [Example 4, 2-fluoro-4-{5-(4-methylphenyl)-8-[(3R)-pyrrolidin-3-ylmethoxy]imidazo[1,5-a]pyridin-6-yl}benzonitrile] | ≤ 50 nM
COC(=O)N(C)Cc1ccc(-c2c(-c3ccc(C#N)cc3)nc(OC[C@@H]3CCCN(C)C3)c3cncn23)cc1F [Example 48, methyl [4-(6-(4-cyanophenyl)-8-{[(3R)-1-methylpiperidin-3-yl]methoxy}imidazo[1,5-a]pyrazin-5-yl)-2-fluorobenzyl]methylcarbamate] | ≤ 50 nM
CN(C)C1CCN(c2nc(-c3ccc(C#N)cc3)c(-c3cnn(C4CCC4)c3)n3cncc23)CC1 [Example 139, 4-{5-(1-cyclobutyl-1H-pyrazol-4-yl)-8-[4-(dimethylamino)piperidin-1-yl]imidazo[1,5-a]pyrazin-6-yl}benzonitrile] | ≤ 50 nM
CN1CCC[C@@H](COc2nc(-c3ccc(C#N)c(F)c3)c(-c3cnc4c(cnn4C)c3)n3cncc23)C1 [Example 36, 2-fluoro-4-[8-{[(3R)-1-methylpiperidin-3-yl]methoxy}-5-(1-methyl-1H-1-pyrazolo[3,4-b]pyridin-5-yl)imidazo[1,5-a]pyrazin-6-yl]benzonitrile] | ≤ 50 nM
CN1CCOc2cc(-c3c(-c4ccc(C#N)cc4)cc(OC[C@@H]4CCNC4)c4cncn34)ccc21 [Example 14, 4-{5-(4-methyl-3,4-dihydro-2H-1,4-benzoxazin-7-yl)-8-[(3R)-pyrrolidin-3-ylmethoxy]imidazo[1,5-a]pyridin-6-yl}benzonitrile] | ≤ 50 nM
Cc1cc(-c2c(-c3ccc(C#N)cc3)nc(OC[C@@H]3CCCN(C)C3)c3cncn23)cc(F)c1CO [Example 44, 4-(5-[3-fluoro-4-(hydroxymethyl)-5-methylphenyl]-8-{[(3R)-1-methylpiperidin-3-yl]methoxy}imidazo[1,5-a]pyrazin-6-yl)benzonitrile] | ≤ 50 nM
Cc1ccc(-c2c(-c3ccc(C#N)cc3)cc(OC[C@@H]3CCNC3)c3cncn23)cc1 [Example 1, 4-{5-(4-methylphenyl)-8-[(3R)-pyrrolidin-3-ylmethoxy]imidazo[1,5-a]pyridin-6-yl}benzonitrile] | ≤ 50 nM
CN1CCC[C@@H](COc2cc(-c3ccc(C#N)cc3)c(-c3cnc4c(c3)OCCO4)n3cncc23)C1 [Example 62, (R)-4-(5-(2,3-dihydro-[1,4]dioxino[2,3-b]pyridin-7-yl)-8-((1-methylpiperidin-3-yl)methoxy)imidazo[1,5-a]pyridin-6-yl)benzonitrile] | ≤ 50 nM
CN1CCC[C@@H](COc2cc(-c3ccc(C#N)cc3)c(-c3ccc(N(C)C)nc3)n3cncc23)C1 [Example 80, 4-(5-[6-(dimethylamino)pyridin-3-yl]-8-{[(3R)-1-methylpiperidin-3-yl]methoxy}imidazo[1,5-a]pyridin-6-yl)benzonitrile] | ≤ 50 nM
CCn1c(=O)oc2cc(-c3c(-c4ccc(C#N)cc4)nc(N4CCC(N(C)C)CC4)c4cncn34)ccc21 [Example 108, 4-[8-[4-(dimethylamino)piperidin-1-yl]-5-(3-ethyl-2-oxo-2,3-dihydro-1,3-benzoxazol-6-yl)imidazo[1,5-a]pyrazin-6-yl]benzonitrile] | ≤ 50 nM
